As usually defined, the CC50 is the concentration giving 50% cytotoxicity.

Consider two molecules from publication PMC5161367, “Discovery of Novel Small Molecule Inhibitors of VEGF Expression in Tumor Cells Using a Cell-Based High Throughput Screening Platform” (PLoS ONE, 2016).

Where only a bound is given, the exact number is not on record here.

Series [1] can be described thus: Cytotoxicity, CellTiter-Glo, HeLa cells. Type of series: cell-based. The conditions noted are these: human. As for the experimental part:
(§1) The cytotoxicity of compounds was determined in peripheral blood mononuclear cells (PBMCs) and primary human foreskin fibroblasts, both purchased frozen from AllCells, Inc, CA. Cells were incubated with test compound at various concentrations in triplicate for a period of 3 days in 96-well plates. The cytotoxicity or inhibition of cell proliferation was determined using a standard CellTiter-Glo® Luminescent Cell Viability Assay (Promega, Madison, WI) that measures total cellular adenosine triphosphate (ATP) concentration as a function of cell viability. In addition, cytotoxicity assays were also performed in HeLa cells in parallel with VEGF ELISA to ensure that the inhibition of VEGF production in HeLa cells was not due to cytotoxicity.
The IC50 values for compounds that inhibited VEGF production were determined next. A seven-point dose-response analysis was performed for each of the 137 compounds. In parallel, a dose-response cytotoxicity assay was performed to determine the CC50 (the concentration resulting in 50% cellular growth inhibition or cytotoxicity) under the same conditions as VEGF ELISA to determine whether hypoxia-induced VEGF inhibition was due to cytotoxicity.
Background: ATP-based viability assays read luminescence as a measure of living cells.

Series [2] in a line: Cytotoxicity, CellTiter-Glo, PBMC. It is filed as cell-based. As to conditions: human, peripheral blood mononuclear cells (PBMC). Here is the method:
as §1

The subject of series [3] is VEGF 5'- and 3'-UTR luciferase reporter. As to the kind of experiment: VEGF GEMS luciferase reporter (B9 cells, VEGF UTRs) vs control reporter (B12 cells). Type of series: cell-based, human. Here is the method:
Luciferase assays were conducted using the Bright-Glo assay (Promega, Madison, WI), following the manufacturer’s instructions. The plates were incubated for 5 minutes at room temperature with gentle shaking before determining the level of luciferase activity. For assays done in 96-well plates, luciferase activity was monitored using a Topcount microplate reader (Perkin Elmer, USA). For HTS and assays done in 384-well plates, luciferase activity was determined using a ViewLux microplate reader (Perkin Elmer, USA).
A high throughput screen (HTS) was performed with a stable cell line designated B9 that was generated by transfecting the VEGF GEMS™ vector (Fig 1a) into HEK293 cells. Log phase growing B9 cells were trypsinized and re-suspended in growth medium containing 1x penicillin and streptomycin (Invitrogen) to form a single-cell suspension. Cell counts were determined using a hemocytometer, with cell viability greater than 98% for all assays. B9 cells were seeded (10,000 cells per well) in 384-well plates and incubated with test compound at a final concentration of 7.5 μM in duplicate in a 40 μL reaction. The final concentration of DMSO was 0.5%. A serial dilution (0.078 to 20 μM) of puromycin was included in each plate as positive control for the nonspecific inhibition of translation. After incubation for 20 hours at 37°C, 5% CO2, 20 μL of Bright-Glo substrate (Promega) were added to each well. Plates were incubated for 5 minutes at room temperature with gentle shaking. Firefly luciferase luminescence was measured on the ViewLux (PerkinElmer). Data were loaded into ActivityBase (IDBS) for analysis. The HTS plate configuration is shown in S1 Fig. The threshold for hits was set at mean + 3x SD (standard deviation). Statistical robustness was assessed by Z’-factor, defined as 1-((3 x (SDblank-control + SDDMSO-control)/(Meanblank-control + MeanDMSO-control)), where the blank control represents assay background and the DMSO control represents total signal from the DMSO treated samples.
To address the possibility that the compounds identified in the screen function by modulating general transcription processes rather than targeting processes regulated by the 5’- and/or 3’-UTRs of VEGF mRNA, we generated an additional cell line, designated as B12 that harbors the luciferase reporter flanked with control UTRs from the plasmid pCDNA3.1 vector instead of those from VEGF mRNA. Compounds that reduce luciferase activity in both cell lines are considered to be general inhibitors of transcription or translation. Therefore, those compounds that inhibit luciferase expression in B9 but not in B12 cells act through the 5’- and/or 3’-UTRs of the VEGF transcript. A subset of the compounds selective for the VEGF UTRs was identified.
A general note: In a reporter assay the amount or activity of a reporter protein is the signal.

The test system of series [4] is hVEGF. As to the kind of experiment: HT1080 xenograft pharmacodynamic model, intratumor hVEGF. Type of series: in vivo, mouse (human tumor xenograft). The conditions noted are these: twice per day for 7 days. Here is the method:
(§2) Log phase growing tumor cells (5–10 x 10^6 cells/mouse, depending on the cell line) were implanted subcutaneously in athymic nude mice. When the average tumor size reached the indicated size, mice were randomly divided into groups and administered vehicle (5% DMSO/ 95% PEG-300) or test compounds by oral gavage. Tumor volumes were measured twice per week using digital calipers and body weights once per week. Tumor volume was determined according to the formula: L x (W)^2/2, where L is the longest dimension and W is the shortest dimension.
At the end of experiments, the tumors were excised from mice and homogenized on ice using a Powergen homogenizer fitted with Omni-Tip disposable/reusable probes (both from Fisher Scientific) in Tris-HCl buffer containing a cocktail of proteinase inhibitors. Intra-tumor human VEGF levels, as well as levels of other growth factors or proteins, were subsequently measured using commercially available ELISA kits (R&D Systems). Protein concentrations of the homogenates were determined using the Bradford protein assay (Bio-Rad) and intratumor growth factor levels were normalized to the total protein concentration.
Among the VEGF UTR-selective compounds identified, PTC-858 is a potent hit with adequate pharmaceutical properties (data not shown). These pharmaceutical properties enabled the testing of this compound in a human xenograft pharmacodynamic model in mice to measure modulation of intratumor VEGF levels. Established human HT1080 fibrosarcoma tumors grown as a xenograft in nude mice were treated with PTC-858 orally at a dose of 200 mg/kg, twice per day for 7 days. […] In addition, tumor growth was reduced by 25% after only 7 days of treatment.
A general note: Xenograft models place foreign cells or tissue in a host animal.

Series [5] relates to HT1080 human tumor xenografts. As to the kind of experiment: HT1080 human tumor xenograft growth in athymic nude mice. Type of series: in vivo, mouse. As for the experimental part:
as §2
These pharmaceutical properties enabled the testing of this compound in a human xenograft pharmacodynamic model in mice to measure modulation of intratumor VEGF levels. Established human HT1080 fibrosarcoma tumors grown as a xenograft in nude mice were treated with PTC-858 orally at a dose of 200 mg/kg, twice per day for 7 days. […] In addition, tumor growth was reduced by 25% after only 7 days of treatment.
Tumors in vehicle-treated mice reached an average volume of 1 cm^3 after 15 days, while tumors in mice treated with 10 mg/kg PTC-510 reached the same volume in about 40 days, a tumor growth delay of 25 days.

As to `COc1ccc(C2c3[nH]c4ccc(Br)cc4c3CC3C(=O)N(C4CCCCC4)C(=S)N32)cc1.O=C(O)C(F)(F)F` (stereo not shown) [PTC-510, 9-bromo-2-cyclohexyl-5-(4-methoxyphenyl)-3-thioxo-2,3,5,6,11,11a-hexahydro-1H-imidazo[1’,5’:1,6]pyrido[3,4-b]indol-1-one trifluoroacetate], the cytotoxic concentration (CC50) at 48 hr in series [1] (48 hr) was 200 nM. Further, the 50% cytotoxic concentration (CC50) at 3 days in series [2] (read-out: PBMC cytoxtoxicity CC50) is above 30000 nM. Besides, in series [3], the “VEGF UTR specificity” value is listed as “yes”. The “effect on intratumor VEGF in HT1080 tumors” value in series [4] (50 mg/kg, oral) is on record as “selectively inhibited production of intratumor VEGF”. The “time for tumors to reach an average volume of 1 cm^3” value in series [5] (10 mg/kg, oral, vehicle 15 days) is given as “about 40 days”. In series [5] (10 mg/kg, oral, vs vehicle), this molecule gave a tumor growth delay of 25 days. Further, the “mice with tumors that remained too small to measure (<50 mm^3)” value in series [5] (50 mg/kg group, 3/7 mice, on study more than 90 days) is listed as 43%. In series [5] (50 mg/kg, oral, dosing stopped at 50 days), the “time for tumors to reach 1 cm^3” value is reported as above 50 days. Moreover, the “effect of prolonged treatment on tumor growth” value in series [5] (oral, 10 and 50 mg/kg) was “reduced tumor growth significantly in a dose-dependent fashion”.
Consider `Brc1ccc2[nH]c3c(c2c1)CCCC3n1cccc1` (stereo not shown) [PTC-858, 6-bromo-1-(1H-pyrrol-1-yl)-2,3,4,9-tetrahydro-1H-carbazole], for which the half-maximal cytotoxic concentration (CC50) at 72 hours in series [1] (72 hours, CellTiter-Glo) was 1700 nM; in series [2] (72 hours, CellTiter-Glo), above 30000 nM. Further, the selectivity ratio in series [1] (CC50 vs VEGF ELISA IC50, read-out: selective index (CC50/IC50)) was above 200. The “selectivity, VEGF reporter (B9) vs control reporter B12 cells” value in series [3] (HEK293 stable luciferase reporter lines) is on record as “greater than 2 log”. In addition, the “change of intratumor human VEGF protein levels vs vehicle” value in series [4] (HT1080 xenograft, 200 mg/kg orally) is recorded as “significant reduction of intratumor human VEGF protein levels”. In addition, the “intratumor hVEGF” value in series [4] (HT1080 xenograft, 200 mg/kg, oral, mean +/- SD, n = 10) was 127.5 ± 108.6 pg/mg total tumor proteins. Moreover, the tumor growth reduced in series [5] (200 mg/kg orally, twice per day, after 7 days of treatment) is 25%.
